# Values of other authors in patent US20110270212A1, “PHARMACOKINETIC CONTROL FOR OPTIMIZED INTERFERON DELIVERY” (MEDTRONIC, INC., priority 2007, published 2011).
# Experiments:
# [1] = subcutaneously
# [2] = test system: Hepatitis C virus replication (replicon model); details: via protease inhibition
# [3] = test system: HCV; details: across all dosing arms
# [4] = test system: HCV; details: ribavirin combined with interferon-α, genotype 1 population
# [5] = test system: HCV; details: in vivo
# [6] = test system: HCV; details: oral doses up to 4500 mg
compound,measurement,setting,value
interferon-α,dose administered without adverse reactions,[1],up to 300 million IU/m^2
COc1ccc2c(O[C@@H]3C[C@H]4C(=O)N[C@]5(C(=O)NS(=O)(=O)C6CC6)C[C@H]5/C=C\CCCCN(C)C(=O)[C@@H]4C3)cc(-c3nc(C(C)C)cs3)nc2c1C [TMC435350],Hepatitis C virus replication in replicon experiments,[2],reduce the amount of Hepatitis C virus replication
CC(C)C(=O)OC[C@H]1O[C@@H](n2ccc(N)nc2=O)[C@](C)(F)[C@@H]1OC(=O)C(C)C [R71278],antiviral activity,[3],dose-dependent antiviral activity
"NC(=O)c1ncn([C@@H]2O[C@H](CO)[C@@H](O)[C@H]2O)n1 [ribavirin, 1-β-D-ribofuranosyl-1H-1,2,4-triazole-3-carboxamide]",therapeutic effectiveness of the combination,[4],29%
"[N-]=[N+]=N[C@]1(CO)O[C@@H](n2ccc(N)nc2=O)[C@H](O)[C@@H]1O [R1626, 4′-azidocytidine]",response with pegylated interferon/ribavirin,[5],good response
same,tolerability,[6],generally well-tolerated with increasing adverse events at the highest dose
